{"source": "paper PMC10606833", "about": "“A Comprehensive Study on the Chemical Characterization and Neuroprotective Evaluation of Pracaxi Nuts Extracts Obtained by a Sustainable Approach” (Foods, 2023)", "key": {"[1]": {"assay": "ROS scavenging capacity, oxygen radical absorbance capacity (ORAC) assay", "assay_type": "biochemical", "conditions": "optimized PLE extracts and reference standard (Table 2)", "protocol": "(§1) The ROS scavenging capacity of the PLE extracts obtained from pracaxi nuts cake was measured using the oxygen radical absorbance capacity (ORAC) assay previously described. Ascorbic acid and 10% EtOH (v/v) were used as reference standard and blank control solutions, respectively. Complementary, the RNS scavenging capacity was estimated referring to the nitric oxide (NO) radical scavenging assay. Ascorbic acid was used as the reference standard and 25% EtOH was used as blank control solution. The AChE and BChE inhibitory activities of pracaxi nuts cake PLE extracts were estimated according to the fluorescent enzyme kinetic method described by Sanchez-Martinez et al.. […] Finally, the LOX inhibitory activity of pracaxi nuts cake PLE extracts was determined as described in [26], with slight modifications."}, "[2]": {"assay": "RNS scavenging capacity, nitric oxide (NO) radical scavenging assay", "assay_type": "biochemical", "conditions": "optimized PLE extracts and reference standard (Table 2)", "protocol": "as §1"}}}
{"smiles": "O=C1O[C@H]([C@@H](O)CO)C(O)=C1O", "note": "[Ascorbic acid, ascorbic acid]", "values": [{"measurement": "ROS (IC50)", "setting": "[1]", "value": "3.2 ± 0.2", "unit": "µg/mL"}, {"measurement": "RNS (IC50)", "setting": "[2]", "value": "1120 ± 16", "unit": "µg/mL"}]}
